19 molecules from PMC9578143, “Small-Molecule Ebselen Binds to YTHDF Proteins Interfering with the Recognition of N^6-Methyladenosine-Modified RNAs” (ACS Pharmacology & Translational Science, 2022) can be followed below.

For data set [1], the target named is T1, YTHDF1 YTH domain (Homo sapiens, UniProt Q9BYJ9).
T1 construct: The human YTHDF1 YTH domain (amino acids 365–554, PDB: 4RCJ); host or cells: E. coli BL21(DE3)
T1 sequence (Q9BYJ9 365-554): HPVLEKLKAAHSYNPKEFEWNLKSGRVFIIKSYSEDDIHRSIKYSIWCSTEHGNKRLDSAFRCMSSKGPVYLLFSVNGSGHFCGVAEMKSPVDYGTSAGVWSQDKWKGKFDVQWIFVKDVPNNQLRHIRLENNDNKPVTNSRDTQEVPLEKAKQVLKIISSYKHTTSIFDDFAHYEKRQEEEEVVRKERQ
Kind of data set: Tryptophan fluorescence quenching assay. Format: binding. How it is done:
Fluorescence was measured using a Tecan Infinite 200 Microplate reader (Tecan Group Ltd.), setting the […] wavelength at 288 nm and collecting the emission data at 330 nm.

Another data set addresses T2, YTHDF1 domain (Homo sapiens, UniProt Q9BYJ9).
T2 construct: The human YTHDF1 YTH domain (amino acids 365–554, PDB: 4RCJ); host or cells: E. coli BL21(DE3)
T2 sequence (Q9BYJ9 365-554): T1 sequence (Q9BYJ9 365-554)
Kind of data set: High-throughput screen, tryptophan quenching, Z-score. Format: binding. The following applies: 5 μM protein, compounds at 10 μM. The procedure:
A Z factor of 0.53 was obtained. The high-throughput screen was performed by using an automatic liquid handling (Freedom EVO, Tecan), filling black 384-well plates with 15 μL of 5 μM protein in 20 mM Tris (pH 7.5), 150 mM NaCl, and 10% glycerol, and then by adding the library of compounds at a final concentration of 10 μM. Fluorescence was measured immediately after compound addition. The library used was the Spectrum Collection (Microsource Discovery System, Inc.), composed of 2560 compounds, of whom 60% are clinically used drugs, 25% natural products, and 15% other bioactive molecules. The Z-score was calculated as (X – μp)/σp, where X is the fluorescence intensity of the protein. Candidate molecules were considered all of the ones that were under the threshold of Z = −3, while all of the ones over that value were discarded.

Data set [2] has as its target T3, YTH domain of YTHDF1 / biotinylated RNA probe 5′-Bi-CCGAm6ACUGUC-3′ (Homo sapiens, UniProt Q9BYJ9).
T3 construct: The human YTHDF1 YTH domain (amino acids 365–554, PDB: 4RCJ); host or cells: E. coli BL21(DE3)
T3 sequence (Q9BYJ9 365-554): T1 sequence (Q9BYJ9 365-554)
Kind of data set: AlphaScreen competitive assay, saturation binding. The following applies: for Disruption of the YTH/RNA interaction (AlphaScreen, in words): YTHDF1 YTH domain. The procedure: The Amplified Luminescent Proximity Homogeneous Assay (ALPHA Assay) was performed in white 384-well Optiplates (PerkinElmer) in a final volume of 20 μL, and it was first optimized by titrating both the protein and the biotinylated RNA probe (5′-Bi-CCGAm6ACUGUC-3′, Dharmacon) to find the appropriate right protein/RNA ratio before the saturation of the detection signal. […] Anti-His acceptor beads (PerkinElmer) (20 μg/mL final concentration) and streptavidin donor beads (20 μg/mL final concentration) were added and the reaction was incubated in the dark at room temperature for 1 h to reach equilibrium. Light signals were detected with an Enspire Multimode Plate reader (PerkinElmer). […] The IC50 of ebselen was determined from the nonlinear regression fits of the data.

Data set [3] concerns the target T4, YTHDF1 YTH domain (human, UniProt Q9BYJ9 365-554).
T4 sequence: T1 sequence (Q9BYJ9 365-554)
Kind of data set: dynamic mass redistribution. The following applies: EC50; immobilized protein; m6A; Fluorescence: 20 mM Hepes pH 7.5, 150 mM NaCl, 10% glycerol; REMSA: 20 mM Hepes pH 7.5, 50 mM KCl, BSA, 0.25% glycerol, gel at 4 C; AlphaScreen: 25 mM Hepes pH ….

In data set [4] the target is T4, YTHDF1 YTH domain. Kind of data set: tryptophan fluorescence quenching; EC50; 5 uM protein; Fluorescence: 20 mM Hepes pH 7.5, 150 mM NaCl, 10% glycerol; REMSA: 20 mM Hepes pH 7.5, 50 mM KCl, BSA, 0.25% glycerol, gel at 4 C; AlphaScreen: 25 mM Hepes pH. Conditions: protein: recombinant; tags: 6xHis (C-terminal as stated); single strand.
Data set [5] deals with T4, YTHDF1 YTH domain. Kind of data set: tryptophan fluorescence quenching; 5 uM protein; Fluorescence: 20 mM Hepes pH 7.5, 150 mM NaCl, 10% glycerol; REMSA: 20 mM Hepes pH 7.5, 50 mM KCl, BSA, 0.25% glycerol, gel at 4 C; AlphaScreen: 25 mM Hepes pH. Conditions: protein: recombinant; tags: 6xHis (C-terminal as stated); single strand.
[6] abbreviates: 5 μM protein, read-out: EC50 (tryptophan quenching).
Where [7] appears, read: Table 1, read-out: EC50 (μM) (Tryptophan quenching).

Values joined by “and” are separate entries in the source; they are usually repeats but may differ in a detail not shown here. Equal values may be shown once. “Also recorded” adds a separate entry of the source. Read-outs that look alike come from different tables or passages of the source.

On to 5-′CCGAm6ACUGUC-3′, for which, on YTHDF1 YTH domain [1] (setting [6]), the concentration giving a half-maximal response (EC50) is 0.14 µM and 0.139 µM.

In the case of `O=C1C(Cl)=C(Cl)C(=O)c2c(O)ccc(O)c21` [2,3-DICHLORO-5,8-DIHYDROXYNAPTHOQUINONE], the “Mean(FI.z-score)” value at YTHDF1 domain is recorded as -3.853.

With `O=C1C(Cl)=C(Cl)C(=O)C(Cl)=C1Cl` [CHLORANIL], at YTHDF1 domain, the “Mean(FI.z-score)” value is recorded as -4.349.

`O=c1c2ccccc2sn1-c1ccccc1` [Compound 2, 2-Phenylbenzo[d]isothiazol-3(2H)-one]: the “Tryptophan fluorescence quenching / binding to the YTH domain (in words)” value on YTHDF1 YTH domain [1] is recorded as “maintained both capacities”. For the same molecule, the concentration for a half-maximal effect (EC50) at YTHDF1 YTH domain [1] (setting [7]) worked out at 1.76 ± 0.02 µM. In data set [2] (50 nM RNA, 50 nM protein, compound 0–100 μM), this molecule had an IC50 of 23.14 ± 0.08 µM. Further, in data set [2], the “Disruption of the YTH/RNA interaction (AlphaScreen, in words)” value is “maintained both capacities”.

Regarding `O=C1c2ccccc2CN1c1ccccc1` [Compound 3, 2-phenylisoindolin-1-one], the “Tryptophan fluorescence quenching / binding to the YTH domain (in words)” value at YTHDF1 YTH domain [1] is reported as “completely abolished; also recorded: failed to generate a dose–response curve”. For the same molecule, the EC50 at YTHDF1 YTH domain [1] (setting [7]) was above 100 µM. The “Disruption of the YTH/RNA interaction (AlphaScreen, in words)” value in data set [2] is on record as “completely abolished; also recorded: failed”.

For the molecule `O=c1c2ccccc2[se]n1-c1ccc(F)cc1` [Compound 4, 2-(4-Fluorophenyl)benzo[d][1,2]selenazol-3(2H)-one], on YTHDF1 YTH domain [1] (setting [7]), the EC50 turned out to be 1.89 ± 0.33 µM.

Take `O=c1c2ccccc2sn1-c1ccc(F)cc1` [Compound 5, 2-(4-Fluorophenyl)benzo[d]isothiazol-3(2H)-one]: the EC50 on YTHDF1 YTH domain [1] (setting [7]) was found to be 1.63 ± 0.89 µM.

Turning to `CCN(CC)CCn1[se]c2ccccc2c1=O` [Compound 6, 2-(2-(Diethylamino)ethyl)benzo[d][1,2]selenazol-3(2H)-one], the EC50 on YTHDF1 YTH domain [1] (setting [7]) worked out at 1.48 ± 0.26 µM.

Take `CCN(CC)CCn1sc2ccccc2c1=O` [Compound 7, 2-(2-(Diethylamino)ethyl)benzo[d]isothiazol-3(2H)-one]: the concentration for a half-maximal effect (EC50) on YTHDF1 YTH domain [1] (setting [7]) turned out to be 1.69 ± 0.26 µM.

On to `O=c1c2ccccc2[se]n1CCN1CCOCC1` [Compound 8, 2-(2-Morpholinoethyl)benzo[d][1,2]selenazol-3(2H)-one], for which the concentration for a half-maximal effect (EC50) on YTHDF1 YTH domain [1] (setting [7]) stood at 3.35 ± 2.2 µM.

Take `O=c1c2ccccc2sn1CCN1CCOCC1` [Compound 9, 2-(2-Morpholinoethyl)benzo[d]isothiazol-3(2H)-one]: the EC50 at YTHDF1 YTH domain [1] (setting [7]) was 2.83 ± 1.08 µM.

Regarding `O=C(NCCN1CCOCC1)c1ccccc1SSc1ccccc1C(=O)NCCN1CCOCC1` [Compound 10, 2,2′-Disulfanediylbis(N-(2-morpholinoethyl)benzamide)], at YTHDF1 YTH domain [1] (setting [7]), the EC50 is 2.9 ± 1.8 µM.

Take `Nc1ncnc2c1ncn2[C@@H]1O[C@H](CO)[C@@H](O)[C@H]1O` [adenosine]: the “Tryptophan fluorescence quenching / binding to the YTH domain (in words)” value at YTHDF1 YTH domain [1] is “not upon adenosine addition”.

`CNc1ncnc2c1ncn2[C@@H]1O[C@H](CO)[C@@H](O)[C@H]1O` [m6A, N^6-methyladenosine]: the EC50 on YTHDF1 YTH domain [1] (setting [6]) was 596 µM.

Regarding m6A RNA probe used in DMR, the K half with YTHDF1 YTH domain [3] amounted to 63.8 nM.

For the molecule CCGAACUGUC (ssRNA, m6A at position 5) [GAm6ACU ssRNA], the “apparent K (half saturation)” value with YTHDF1 YTH domain [4] is 140 nM.

As to CCGGACUGUC (ssRNA, m6A at position 5) [GGm6ACU ssRNA (m6A-RNA)], the “apparent K (half saturation)” value in the data set with YTHDF1 YTH domain [4] turned out to be 1050 nM.

Consider CCGAACUGUC (ssRNA) [GAACU ssRNA unmethylated], for which the binding result in the data set with YTHDF1 YTH domain [5] is “no binding”.

For the molecule CCGGACUGUC (ssRNA) [GGACU ssRNA unmethylated], the binding result in the data set with YTHDF1 YTH domain [5] is reported as “no binding”.
